Data on twelve compounds can be found in patent US20050182025A1, “Amidinylphenyl compounds and their use as fungicides” (priority 2002, published 2005).

Common to all, as to assay type: in vivo
In test [1] the test system is Puccinia recondita. As to the kind of experiment: Test B: preventive spray on wheat seedlings, wheat leaf rust, disease rating. Conditions: wheat seedlings sprayed to run-off, inoculated the following day with Puccinia recondita, 24 h saturated atmosphere then 6 days at 20° C.; test concentration not given. The method in brief:
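Compound suspended in acetone/water (50/50) with 250 ppm Trem 014 surfactant, sprayed to run-off on wheat seedlings (200 ppm ≈ 500 g/ha); P. recondita spores inoculated next day. Plants held 24 h saturated at 20° C, then 6 days at 20° C; disease rated as % control relative to untreated (100 = full control).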

Test [2] has as its system Septoria nodorum. Description: Test C: preventive spray on wheat seedlings, Septoria glume blotch, disease rating. Conditions: wheat seedlings sprayed to run-off, inoculated the following day with Septoria nodorum, 48 h saturated atmosphere then 9 days at 20° C.; test concentration not given. The method in brief:
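Wheat seedlings were sprayed to run-off with compound suspensions in acetone/water containing 250 ppm Trem 014 (200 ppm equals 500 g/ha), then inoculated with Septoria nodorum spores next day. Plants were held 48 h saturated at 20° C., then 9 days at 20° C. Disease control was rated 0–100 relative to controls.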

Test [3] concerns Erysiphe graminis f. sp. tritici. Description: Test A: preventive spray on wheat seedlings, wheat powdery mildew, disease rating. The following applies: wheat seedlings sprayed to run-off, inoculated the following day with Erysiphe graminis f. sp. tritici, rated after 7 days at 20° C.; test concentration not given. The method in brief: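 Wheat seedlings sprayed to run-off with compound suspension (200 ppm ≈ 500 g/ha) in acetone/water with surfactant, inoculated next day with Erysiphe graminis f. sp. tritici spores. After 7 days at 20 °C, disease rated 0–100 as % control relative to untreated plants.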

As for `CC(=Nc1cc(Cl)c(OCCCC(C)C)c(Cl)c1C)N(C)C` [compound 116], in test [1], the “Test B disease control rating (100 = 100% disease control, 0 = no disease control relative to the controls)” value came to 92%. The “Test C disease control rating (100 = 100% disease control, 0 = no disease control relative to the controls)” value in test [2] is 100%. The “Test A disease control rating (100 = 100% disease control, 0 = no disease control relative to the controls)” value in test [3] turned out to be 87%.
Taken in the same sequence, the figures for `CCN(CC)C(=S)Nc1cc(Cl)c(OCCCC(C)C)c(Cl)c1C` [compound 117] were 37%, 60% and 29%.
For `CCN(C)C(=S)Nc1cc(Cl)c(OCCCC(C)C)c(Cl)c1C` [compound 118], in that order: 100%, 78% and 99%.
For `Cc1c(NC(=S)N(C)C)cc(Cl)c(OCCCC(C)C)c1Cl` [compound 119], in that order: 64%, 78% and 0%.
`CCN(CC)C(=S)Nc1cc(Cl)c(OCCCC(C)(C)C)cc1C` [compound 120]: the “Test B disease control rating (100 = 100% disease control, 0 = no disease control relative to the controls)” value in test [1] is listed as 8%. In addition, the “Test C disease control rating (100 = 100% disease control, 0 = no disease control relative to the controls)” value in test [2] is reported as 0%. Besides, in test [3], the “Test A disease control rating (100 = 100% disease control, 0 = no disease control relative to the controls)” value is listed as 91%.
Take `Cc1c(NC(=S)N(C)C)cc(Cl)c(OCCCC(C)(C)C)c1Cl` [compound 121]: the “Test B disease control rating (100 = 100% disease control, 0 = no disease control relative to the controls)” value in test [1] is 85%. In test [2], the “Test C disease control rating (100 = 100% disease control, 0 = no disease control relative to the controls)” value amounted to 67%. For the same compound, the “Test A disease control rating (100 = 100% disease control, 0 = no disease control relative to the controls)” value in test [3] was 49%.
As to `CCN(C)C(=S)Nc1cc(Cl)c(OCCCC(C)(C)C)c(Cl)c1C` [compound 122], the “Test B disease control rating (100 = 100% disease control, 0 = no disease control relative to the controls)” value in test [1] is recorded as 100%. Besides, the “Test C disease control rating (100 = 100% disease control, 0 = no disease control relative to the controls)” value in test [2] turned out to be 0%. Also, the “Test A disease control rating (100 = 100% disease control, 0 = no disease control relative to the controls)” value in test [3] was 99%.
`CC(C)CCCOc1cc(Cl)c(NC(=S)N(C)C)cc1Cl` [compound 123]: the “Test B disease control rating (100 = 100% disease control, 0 = no disease control relative to the controls)” value in test [1] is reported as 46%. Besides, in test [2], the “Test C disease control rating (100 = 100% disease control, 0 = no disease control relative to the controls)” value was 100%. The “Test A disease control rating (100 = 100% disease control, 0 = no disease control relative to the controls)” value in test [3] was 54%.
Taken in the same sequence, the figures for `CCN(C)C(=S)Nc1cc(Cl)c(OCCCC(C)C)cc1Cl` [compound 124] were 98%, 100% and 98%.
For the compound `CCN(C)C(=S)Nc1cc(Cl)c(OCCCC(C)C)cc1Cl` [compound 125], the “Test B disease control rating (100 = 100% disease control, 0 = no disease control relative to the controls)” value in test [1] came to 97%. Also, in test [2], the “Test C disease control rating (100 = 100% disease control, 0 = no disease control relative to the controls)” value was 100%. Further, the “Test A disease control rating (100 = 100% disease control, 0 = no disease control relative to the controls)” value in test [3] was 96%.
Taken in the same sequence, the figures for `CC(C)CCCOc1cc(Cl)c(N=CN(C)C)cc1Cl` [compound 126] were 40%, 100% and 95%.
On to `CCN(C(=S)Nc1cc(Cl)c(OCCCC(C)C)cc1Cl)C(C)C` [compound 127], for which the “Test B disease control rating (100 = 100% disease control, 0 = no disease control relative to the controls)” value in test [1] was 99%. Besides, in test [2], the “Test C disease control rating (100 = 100% disease control, 0 = no disease control relative to the controls)” value is given as 100%. Besides, the “Test A disease control rating (100 = 100% disease control, 0 = no disease control relative to the controls)” value in test [3] turned out to be 0%.
